The text below walks through data of patent US20240072809A1, “ASGPR-BINDING COMPOUNDS FOR THE DEGRADATION OF EXTRACELLULAR PROTEINS” (Avilar Therapeutics, Inc., priority 2020, published 2024).

SMILES strings stand for the structures.

By Kd is commonly meant the equilibrium constant for the complex coming apart.

Sequence of ASGPR (P07306 whole entry): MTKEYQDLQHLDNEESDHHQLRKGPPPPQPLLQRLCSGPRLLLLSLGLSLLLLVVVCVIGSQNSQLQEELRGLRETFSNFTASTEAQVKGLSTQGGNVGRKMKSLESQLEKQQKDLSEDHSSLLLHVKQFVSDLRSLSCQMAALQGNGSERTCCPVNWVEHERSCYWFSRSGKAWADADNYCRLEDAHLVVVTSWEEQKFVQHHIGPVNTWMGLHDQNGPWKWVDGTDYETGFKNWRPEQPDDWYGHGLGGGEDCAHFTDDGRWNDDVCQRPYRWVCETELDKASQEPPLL

The first assay concerns the target ASGPR (Homo sapiens (Human), UniProt P07306). The assay is described as follows: Affinity to ASGPR measured by surface plasmon resonance (SPR). The following applies: ASGPR ligands with linker, Table 5; read-out: ASGPR_SPR Binding KD. Format: binding. (In general: In SPR one partner is held on a chip, and binding of the other changes the refractive index at the surface.)
For the compound `NC(COCCC(=O)NCCOCCOCCOCCOC[C@H]1OC[C@H](Nc2nccc(C(F)(F)F)n2)[C@@H](O)[C@H]1O)COCCC(=O)NCCOCCOCCOCCOC[C@H]1OC[C@H](Nc2nccc(C(F)(F)F)n2)[C@@H](O)[C@H]1O` [Compound A422, 3,3′-((2-aminopropane-1,3-diyl)bis(oxy))bis(N-(1-((2R,3R,4R,5S)-3,4-dihydroxy-5-((4-(trifluoromethyl)pyrimidin-2-yl)amino)tetrahydro-2H-pyran-2-yl)-2,5,8,11-tetraoxatridecan-13-yl)propanamide)], the Kd is below 100 µM.

Still in this assay, the particulars now being: ASGPR ligands, Table 2; Biacore 8K, 25° C., steady state fit; read-out: SPR Binding External Calculation: KD.
For the compound `OC[C@H]1OC[C@@H](CCc2ccccc2)[C@@H](O)[C@H]1O` [Compound A160, (2R,3R,4R,5R)-2-(hydroxymethyl)-5-phenethyltetrahydro-2H-pyran-3,4-diol], the Kd was above 1000 µM. Same read-out and setting: the value for `CO[C@H]1O[C@H](CO)[C@H](O)[C@H](O)[C@H]1Nc1nc(Cl)ns1` [Compound A105, (2R,3R,4R,5R,6S)-5-((3-chloro-1,2,4-thiadiazol-5-yl)amino)-2-(hydroxymethyl)-6-methoxytetrahydro-2H-pyran-3,4-diol] was below 100 µM; that for `OC[C@H]1OC[C@@H](COc2ccccc2)[C@@H](O)[C@H]1O` [Compound A193, (2R,3R,4R,5S)-2-(hydroxymethyl)-5-(phenoxymethyl)tetrahydro-2H-pyran-3,4-diol] was 100 to 500 µM; that for `OC[C@H]1OC[C@@H](c2ccc(F)cc2)[C@@H](O)[C@H]1O` [Compound A164, (2R,3R,4R,5R)-5-(4-fluorophenyl)-2-(hydroxymethyl)tetrahydro-2H-pyran-3,4-diol] was 500 to 1000 µM. As for `O=c1nc(N[C@H]2CO[C@H](CO)[C@H](O)[C@@H]2O)[nH]c(=O)[nH]1` [Compound A283], the Kd was 100 to 500 µM. In the case of `C=CC(=O)N[C@H]1[C@H](OC)O[C@H](CO)[C@H](O)[C@@H]1O` [Compound A118, N-((2R,3R,4R,5R,6R)-4,5-dihydroxy-6-(hydroxymethyl)-2-methoxytetrahydro-2H-pyran-3-yl)acrylamide], the Kd was below 100 µM.

The assay is the same for the next values; noted with them: ASGPR ligands, Table 4; class symbols; read-out: ASGPR_PR Binding KD.
Turning to `OC[C@H]1O[C@H]2[C@@H]([C@@H](O)[C@H]1O)C2(Cl)Cl` [Compound A397, (1S,3R,4R,5R,6R)-7,7-dichloro-3-(hydroxymethyl)-2-oxabicyclo[4.1.0]heptane-4,5-diol], the Kd was 100 to 500 µM. As to `OC[C@H]1OC[C@@H](CNc2nc(Cl)ns2)[C@@H](O)[C@H]1O` [Compound A188, (2R,3R,4R,5R)-5-(((3-chloro-1,2,4-thiadiazol-5-yl)amino)methyl)-2-(hydroxymethyl)tetrahydro-2H-pyran-3,4-diol], the Kd fell in the range of 100 to 500 µM.

For `CO[C@H]1O[C@H](CO)[C@H](O)[C@H](O)[C@H]1Nc1ncns1` [Compound A378], the Kd was below 100 µM. Turning to `CO[C@H]1O[C@H](CO)[C@H](O)[C@H](O)[C@H]1Nc1nccc(C(F)(F)F)n1` [Compound A377], the Kd is below 100 µM. Same read-out and setting: with `N#Cc1cncc(N[C@H]2CO[C@H](CO)[C@H](O)[C@@H]2O)n1` [Compound A312] the figure was below 100 µM; with `OC[C@H]1OC[C@H](Nc2nc(Br)ns2)[C@@H](O)[C@H]1O` [Compound A299, (2R,3R,4R,5S)-5-[(3-bromo-1,2,4-thiadiazol-5-yl)amino]-2-(hydroxymethyl)oxane-3,4-diol], below 100 µM. As to `COc1ccnc(N[C@H]2CO[C@H](CO)[C@H](O)[C@@H]2O)n1` [Compound A323], the Kd was below 100 µM. Turning to `O=C(NC[C@@H]1CO[C@H](CO)[C@H](O)[C@@H]1O)C(F)(F)F` [Compound A186, N-(((3R,4R,5R,6R)-4,5-dihydroxy-6-(hydroxymethyl)tetrahydro-2H-pyran-3-yl)methyl)-2,2,2-trifluoroacetamide], the Kd is above 1000 µM. Still for that read-out and setting: the value for `C=CCO[C@H]1O[C@H](CO)[C@H](O)[C@H](O)[C@H]1Nc1nc(Cl)ns1` [Compound A405, (2R,3R,4R,5R,6S)-6-(allyloxy)-5-((3-chloro-1,2,4-thiadiazol-5-yl)amino)-2-(hydroxymethyl)tetrahydro-2H-pyran-3,4-diol] was below 100 µM. Same read-out and setting: with `N#Cc1ccnc(N[C@H]2CO[C@H](CO)[C@H](O)[C@@H]2O)n1` [Compound A309] the figure was below 100 µM; with `OC[C@H]1OC[C@H](Nc2cncc(C(F)(F)F)n2)[C@@H](O)[C@H]1O` [Compound A315], below 100 µM; with `NC[C@@H]1CO[C@H](CO)[C@H](O)[C@@H]1O` [Compound A425, (2R,3R,4R,5R)-5-(aminomethyl)-2-(hydroxymethyl)tetrahydro-2H-pyran-3,4-diol], above 1000 µM. Still for that read-out and setting: with `O=C1CCCN1[C@@H]1CO[C@H](CO)[C@H](O)[C@@H]1O` [Compound A180, 1-((3R,4R,5R,6R)-4,5-dihydroxy-6-(hydroxymethyl)tetrahydro-2H-pyran-3-yl)pyrrolidin-2-one] the figure was below 100 µM; with `COc1nc(N[C@H]2CO[C@H](CO)[C@H](O)[C@@H]2O)nc(OC)n1` [Compound A325], below 100 µM.

The assay is the same for the next values; noted with them: ASGPR ligands, Table 4; numeric lower bounds; read-out: ASGPR_PR Binding KD.
Turning to `NC(=O)NC[C@@H]1CO[C@H](CO)[C@H](O)[C@@H]1O` [Compound A403, 1-(((3R,4R,5R,6R)-4,5-dihydroxy-6-(hydroxymethyl)tetrahydro-2H-pyran-3-yl)methyl)urea], the dissociation constant Kd was above 20 µM.

Turning to `N#Cc1cc(N[C@H]2CO[C@H](CO)[C@H](O)[C@@H]2O)nc(C#N)n1` [Compound A348, 6-(((3S,4R,5R,6R)-4,5-dihydroxy-6-(hydroxymethyl)tetrahydro-2H-pyran-3-yl)amino)pyrimidine-2,4-dicarbonitrile], the Kd is above 20 µM.

In the case of `OC[C@H]1OC[C@H](Nc2ncc(-c3ccccc3)cn2)[C@@H](O)[C@H]1O` [Compound A311], the Kd was above 20 µM. Take `CS(=O)(=O)c1nc(Cl)cc(N[C@H]2CO[C@H](CO)[C@H](O)[C@@H]2O)n1` [Compound A370, (2R,3R,4R,5S)-5-((6-chloro-2-(methylsulfonyl)pyrimidin-4-yl)amino)-2-(hydroxymethyl)tetrahydro-2H-pyran-3,4-diol]: the Kd is above 10 µM. The same measure, in the same setting: the value for `CS(=O)(=O)NC(=O)N[C@H]1CO[C@H](CO)[C@H](O)[C@@H]1O` [Compound A157, N-(((3S,4R,5R,6R)-4,5-dihydroxy-6-(hydroxymethyl)tetrahydro-2H-pyran-3-yl)carbamoyl)methanesulfonamide] was above 20 µM; that for `COc1cc(N2CCN(C)CC2)nc(N[C@H]2CO[C@H](CO)[C@H](O)[C@@H]2O)n1` [Compound A350, (2R,3R,4R,5S)-2-(hydroxymethyl)-5-((4-methoxy-6-(4-methylpiperazin-1-yl)pyrimidin-2-yl)amino)tetrahydro-2H-pyran-3,4-diol] was above 20 µM. Same read-out and setting: the value for `Cn1cc([C@@H]2CO[C@H](CO)[C@H](O)[C@@H]2O)cn1` [Compound A394, (2R,3R,4R,5R)-2-(hydroxymethyl)-5-(1-methyl-1H-pyrazol-4-yl)tetrahydro-2H-pyran-3,4-diol] was above 200 µM. Turning to `OC[C@H]1OC[C@H](Nc2cc(C(F)(F)F)cnn2)[C@@H](O)[C@H]1O` [Compound A308], the Kd is above 20 µM. The same measure, in the same setting: with `CC(=O)NCCC[C@@H]1CO[C@H](CO)[C@H](O)[C@@H]1O` [Compound A163, N-(3-((3R,4R,5R,6R)-4,5-dihydroxy-6-(hydroxymethyl)tetrahydro-2H-pyran-3-yl)propyl)acetamide] the figure was above 200 µM.
